Laboratory results as given in patent publication US11179363B2, “Non-steroidal selective glucocorticoid receptor agonistic modulators (SEGRAMs) and uses thereof” (ASSOCIATION POUR LA RECHERCHE À L'IGBMC (ARI), priority 2017, dated 2021).

Experiments:
GR [1] = target: T1, GR (Homo sapiens, UniProt P04150); settings: cited from earlier work
T1 sequence (P04150 1-777): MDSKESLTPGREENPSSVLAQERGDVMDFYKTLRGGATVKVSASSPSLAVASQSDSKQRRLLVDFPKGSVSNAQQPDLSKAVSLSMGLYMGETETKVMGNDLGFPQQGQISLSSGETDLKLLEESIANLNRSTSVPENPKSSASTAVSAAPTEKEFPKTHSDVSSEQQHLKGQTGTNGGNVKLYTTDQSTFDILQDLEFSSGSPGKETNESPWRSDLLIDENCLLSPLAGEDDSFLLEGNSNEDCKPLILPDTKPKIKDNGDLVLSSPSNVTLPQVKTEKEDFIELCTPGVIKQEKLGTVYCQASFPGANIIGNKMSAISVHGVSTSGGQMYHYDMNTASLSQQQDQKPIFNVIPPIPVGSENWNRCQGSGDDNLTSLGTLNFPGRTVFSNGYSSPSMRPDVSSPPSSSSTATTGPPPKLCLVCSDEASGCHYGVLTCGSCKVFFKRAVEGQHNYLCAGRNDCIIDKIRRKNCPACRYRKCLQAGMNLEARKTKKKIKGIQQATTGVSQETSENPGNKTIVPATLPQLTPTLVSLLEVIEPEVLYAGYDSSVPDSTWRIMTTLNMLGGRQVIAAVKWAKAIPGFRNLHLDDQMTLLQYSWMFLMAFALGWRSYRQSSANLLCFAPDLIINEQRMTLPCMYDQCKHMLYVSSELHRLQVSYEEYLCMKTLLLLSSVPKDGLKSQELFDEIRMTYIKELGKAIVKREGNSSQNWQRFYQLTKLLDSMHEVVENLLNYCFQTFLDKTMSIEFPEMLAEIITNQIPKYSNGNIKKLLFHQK

GR [2] = target: T2, GR (Rattus norvegicus, UniProt P06536); settings: cited from earlier work
T2 sequence (P06536 1-795): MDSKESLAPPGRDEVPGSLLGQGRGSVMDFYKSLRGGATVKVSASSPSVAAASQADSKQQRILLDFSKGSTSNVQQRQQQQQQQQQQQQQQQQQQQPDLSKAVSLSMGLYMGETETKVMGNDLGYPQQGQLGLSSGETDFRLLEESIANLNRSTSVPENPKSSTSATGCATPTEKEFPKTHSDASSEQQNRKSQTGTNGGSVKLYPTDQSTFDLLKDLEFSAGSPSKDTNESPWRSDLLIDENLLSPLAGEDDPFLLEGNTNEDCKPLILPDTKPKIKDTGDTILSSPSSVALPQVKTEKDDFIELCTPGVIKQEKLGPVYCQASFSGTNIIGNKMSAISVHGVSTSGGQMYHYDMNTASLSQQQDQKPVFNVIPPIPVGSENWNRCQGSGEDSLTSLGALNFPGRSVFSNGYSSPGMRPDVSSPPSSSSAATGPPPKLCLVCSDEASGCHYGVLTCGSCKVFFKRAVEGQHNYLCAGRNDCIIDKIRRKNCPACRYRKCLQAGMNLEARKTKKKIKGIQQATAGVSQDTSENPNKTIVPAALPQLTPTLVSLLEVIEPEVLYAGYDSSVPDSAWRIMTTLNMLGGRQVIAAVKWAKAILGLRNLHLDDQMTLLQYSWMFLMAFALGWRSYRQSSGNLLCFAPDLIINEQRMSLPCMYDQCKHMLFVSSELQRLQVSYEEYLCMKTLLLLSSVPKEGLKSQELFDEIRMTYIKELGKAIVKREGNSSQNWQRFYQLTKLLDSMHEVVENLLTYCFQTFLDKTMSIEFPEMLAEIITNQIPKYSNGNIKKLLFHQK

[3] = tested on: dorsal skin of Balb/C mice; assay: Skin epidermis atrophy after 8-day topical treatment of dorsal skin; type: in vivo
Excerpt: To investigate whether, similarly to Dex, a topical administration of CpdX could result in a skin atrophy, Balb/C mice were shaved on the dorsal skin. Ethanol (vehicle), Dex, CpdX or either one of its two enantiomers CpdX(eA) or CpdX(eB), as well as the deuterated form CpdX-D3 or either one of its two enantiomers CpdX-D3(eA) or CpdX-D3(eB), were topically applied onto the dorsal skin for 8 days.
Upon completion of the treatments, RNA transcripts were extracted from dorsal skin samples and the transcripts of Kindlin-1 and REDD1 genes were analyzed by q-RT-PCR. Histological and morphometric analyses of the dorsal skin were also performed.

[4] = tested on: mouse tibia cortical bone and femur trabecular bone; assay: Cortical and trabecular bone formation after three-month treatment (micro-CT, Wnt16 q-RT-PCR); type: in vivo, B6 male mice; settings: s.c. 1 mg/kg daily, three months
Procedure: (§1) B6 male mice (8-week-old) were daily subjected for three months to either a subcutaneous injection of vehicle (NaCl 0.9%), Dex, CpdX, CpdX(eA), CpdX(eB), CpdX-D3, CpdX-D3(eA) or CpdX-D3(eB) (1 mg/kg body weight, diluted in NaCl 0.9%).
From each animal included in the experiments, one femur and the ipsilateral tibia were dissected and preserved in 70% ethanol for further bone microstructure analysis by micro-CT. The FX Quantum micro-CT scanner (Perkin Elmer) was used to perform measurements at the distal femur and midshaft tibia. All scans were performed with an isotropic voxel size of 10 μm, 160 μA tube current and 90 kV tube voltage.
Morphological 3D measurements were performed using the CTAn software (Bruker). Cortical bone parameters, which were measured in the tibia midshaft, included measures of the bone volume fraction as compared to the total volume, cortical thickness, total area, bone area and marrow area. […] Trabecular bone parameters were measured in the distal metaphysis of the femurs and included bone volume fraction, trabecular thickness, trabecular number and trabecular spacing. […]
The statistical significance as compared to vehicle treatment was calculated through one-way ANOVA test followed by Dunn's multiple comparison test, *p<0.05; **p<0.01; ***p<0.001; ****p<0,0001.

[5] = Body weight and body composition after three-month treatment (pDEXA); type: in vivo, B6 male mice; settings: s.c. 1 mg/kg daily, 3 months
Procedure: B6 male mice (8-week-old) were daily subjected for three months to a subcutaneous injection of either vehicle (NaCl 0.9%), Dex, CpdX or CpdX-D3 (1 mg/kg body weight, diluted in vehicle. A pDEXA machine was used to determine the lean mass and fat mass. The statistical significance was calculated through Krustal-Walis test followed by a Dunn's multiple comparison test, *p<0.05; **p<0.01; ***p<0.001.

[6] = tested on: thymus, spleen, adrenal gland and kidney; assay: Organ weights (thymus, spleen, adrenal gland, kidney) after three-month treatment; type: in vivo, B6 male mice; settings: s.c. 1 mg/kg daily, three months
Procedure: as §1, with “to” for “to either”, “of either” for “of”, “vehicle). Following these treatments, four organs (thymus, spleen, adrenal gland and kidney) were harvested and weighted.” for “NaCl 0.9%).”

adrenal glands = assay: Corticosterone synthesis and adrenal gland after three-month treatment; type: in vivo, B6 male mice; settings: three months
Procedure: B6 male mice (8-week-old) were daily subjected for three months to either a subcutaneous injection of vehicle (NaCl 0.9%), Dex, CpdX, CpdX(eA), CpdX(eB), CpdX-D3, CpdX-D3(eA) or CpdX-D3(eB) (1 mg/kg body weight, diluted in vehicle).
Following this long-term treatment, blood was collected at 10 a.m. and 6 p.m. by retro-orbital puncture in lithium-heparin coated vials, and the plasmatic level of corticosterone was determined. Adrenal glands were harvested and weighted. RNA transcripts were extracted and transcripts of the Cyp11a, Cyp11b1, Cyp11b2 and HSD3β genes were analyzed by q-RT-PCR. Histological analyses of the adrenal glands were also carried out.

[7] = Blood glucose and intraperitoneal glucose tolerance test (IPGTT) after three-month treatment; type: in vivo, B6 male mice; settings: three months
Procedure: B6 male mice (8-week-old) were daily subjected for three months to a subcutaneous injection of either vehicle (NaCl 0.9%), Dex, CpdX, CpdX(eA), CpdX(eB), CpdX-D3, CpdX-D3(eA) or CpdX-D3(eB) (1 mg/kg body weight, diluted in vehicle). Mice were over-night-fasted. Mouse blood glucose concentration was measured before (To) and during two hours (T120) after glucose i.p. injection ([…]).

[8] = Blood insulin, intraperitoneal insulin tolerance test (IPITT) and liver western blot after three-month treatment; type: in vivo, B6 male mice; settings: three months
Procedure: B6 male mice (8-week-old) were subjected daily for three months to a subcutaneous injection of either vehicle (NaCl 0.9%), Dex, CpdX, CpdX(eA), CpdX(eB), CpdX-D3, CpdX-D3(eA) or CpdX-D3(eB) (1 mg/kg body weight, diluted in vehicle). After three months, the blood was collected at 10 a.m. by retro-orbital puncture in lithium-heparin coated vials, and the plasmatic level of insulin was determined.
For the intraperitoneal insulin tolerance test (IPITT), mice were fasted for 6 hours before test. The blood glucose concentration was measured both before (To) and during a one-hour period after insulin i.p. injection (0.75 U/kg body weight).
Following this three-month treatment, liver samples were harvested and lysed in the RIPA buffer (20 mM Tris pH 8, 150 mM NaCl, 10% glycerol, 1% NP-40 and 2 mM EDTA). Antibodies from Cell Signaling were used to assess by Western-Blotting the relative level of p-IRS1 (S318), IRS-1, p-AKT (S473) and AKT.

liver = assay: Fatty liver after three-month treatment (red oil staining, q-RT-PCR, plasma cholesterol and bile acids); type: in vivo, B6 male mice; settings: three months
Procedure: B6 male mice (8-week-old) were daily subjected for three months to a subcutaneous injection of either vehicle (NaCl 0.9%), Dex, CpdX, CpdX(eA), CpdX(eB), CpdX-D3, CpdX-D3(eA) or CpdX-D3(eB) (1 mg/kg body weight, diluted in vehicle). Following this treatment, blood was collected at 10 a.m. by retro-orbital puncture in lithium-heparin coated vials. The plasmatic levels of total cholesterol and bile acids were determined.
Liver samples were harvested. […] RNA transcripts were extracted from liver samples and the transcripts of fatty acid synthase (FASN) and Stearoyl-CoA desaturase 1 (SCD1) genes were analyzed by q-RT-PCR.

In the case of `C[C@@H]1C[C@H]2[C@@H]3CCC4=CC(=O)C=C[C@]4(C)[C@@]3(F)[C@@H](O)C[C@]2(C)[C@H]1C(=O)CC#N` [RU24858], the “dissociated profile (transrepression vs transactivation) in vitro” value (GR [1]) is listed as “exhibit such an expected dissociated profile” and the “dissociation upon administration in vivo” value (GR [2]) is listed as “failed to confirm this dissociation”.
In the case of `C[C@@H]1C[C@H]2[C@@H]3CCC4=CC(=O)C=C[C@]4(C)[C@@]3(F)[C@@H](O)C[C@]2(C)[C@@]1(O)C(=O)CO` [Dex, Dexamethasone, reference compound], the “decrease of the epidermal thickness (morphometric analyses)” value ([3]; eight-day topical treatment) is reported as 65%, the “skin atrophy (histological analysis)” value ([3]; eight-day topical treatment) is reported as “severely induces a skin atrophy” and the “transcription of the Kindlin-1 gene (nGRE) in dorsal skin” value ([3]; topical 1 nmole/cm^2, 8 days) is reported as “strongly decreased”. The “transcription of the REDD1 gene (+GRE) in dorsal skin” value ([3]; topical 1 nmole/cm^2, 8 days) was “significantly increased”, the “decrease of the transcription of the WNT16 gene in tibia” value [4] was 50% and the “bone volume as compared to the total volume, tibia cortical bone” value ([4]; micro-CT) was “significantly decreased”. For the same compound, the “body weight, change from baseline” value [5] was “net loss”, the “fat mass / fat percentage, change from baseline” value ([5]; pDEXA) was “disproportional increase” and the “lean mass / lean percentage, change from baseline” value ([5]; pDEXA) was “decrease”. The “decrease of the spleen weight” value [6] was “more than 50%”, the “thymus apoptosis (thymus weight)” value [6] was “no thymus was found in sixteen out of nineteen mice” and the “cortex layers, most notably the fasciculata zone, of the adrenal glands (histology)” value (adrenal glands; s.c. 1 mg/kg daily) was “drastically decreased”. For the same compound, the “transcripts of Cyp11a, Cyp11b1 and HSD3β genes in adrenal glands (corticosterone synthesis pathway)” value (adrenal glands; s.c. 1 mg/kg daily, q-RT-PCR) was “inhibited”, the “glomerulosa zone of the adrenal cortex (histology)” value (adrenal glands) was “drastically decreased” and the “transcript of the Cyp11b2 gene in adrenal glands (aldosterone synthesis pathway)” value (adrenal glands; q-RT-PCR) was “inhibited”. For the same compound, the “plasmatic corticosterone level at 6 p.m.” value (adrenal glands; vs Vehicle) was “much lower”, the “plasmatic corticosterone level at 10 a.m.” value (adrenal glands; vs Vehicle) was “much lower” and the “blood glucose level after over-night fasting” value ([7]; s.c. 1 mg/kg daily) was “significantly higher”. The “blood glucose level during two-hour IPGTT” value ([7]; glucose i.p. injection) was “significant higher”, the “blood insulin level (hyperinsulinemia)” value ([8]; s.c. 1 mg/kg daily, 10 a.m.) was “hyperinsulinemia” and the “phosphorylated insulin receptor substrate 1 (p-IRS1 S318) in liver extracts (western blot)” value [8] was “decrease”. For the same compound, the “phosphorylation of protein kinase B (p-AKT S473) in liver extracts (western blot)” value [8] was “decreased”, the “response to insulin in IPITT” value ([8]; insulin i.p. 0.75 U/kg) was “significant impaired response to insulin” and the “lipid deposition in the liver (5% red oil staining)” value (liver; s.c. 1 mg/kg daily) was “marked lipid deposition”. For the same compound, the “blood cholesterol and bile acids' levels” value (liver; 10 a.m.) was “clear increase” and the “transcripts of fatty acid synthase (FASN) and Stearoyl-CoA desaturase 1 (SCD1) in liver” value (liver; q-RT-PCR) was “increase”.
